Source: US12655436B2, “Import of unnatural or modified nucleoside triphosphates into cells via nucleic acid triphosphate transporters” (The Scripps Research Institute, priority 2014, dated 2026)

Tests used:
Polymerase = conditions: 10, 5, 2 or 1 μM, 30° C., 20 nM DNA
Protocol: Polymerase (15 μg/ml) is incubated at 30° C. in buffer (50 mM TRIS pH 7.5, 0.05% Tween 20, 6 mM MgSO4, 1 mM EDTA, 50 mM NaCl) with 20 nM DNA. […] Tubes are incubated at 30° C. and aliquots are taken at 0.33, 0.66, 1, 2, 5, and 15 mins from the 4 reaction tubes for quenching and 15% urea acrylamide gel analysis. 1 mM dNTPs are added to the remaining reaction tubes and after a further 10 mins an aliquot is taken for gel analysis (chase).

actively growing E. coli = conditions: for degradation of triphosphate in the presence of actively growing E. coli: preliminary characterization, HPLC and MALDI
Protocol: dNaMTP or d5SICSTP (10 mM each) were added to media to a final concentration of 0.25 mM. Cells were incubated with the substrate with shaking at 37° C. for 30 min and then pelleted (8,000 rfu for 5 min, 4° C.). An aliquot of the media fraction (40 μl) was mixed with acetonitrile (80 μl) to precipitate proteins, and then incubated at RT for 30 min. Samples were either analyzed immediately by HPLC or stored at −80° C. until analysis. Analysis began with centrifugation (12,000 rfu for 10 min, RT), then the pellet was discarded, and the supernatant was reduced to ˜20 μl, resuspended in 95% 0.1 M TEAB, pH 7.5; 5% acetonitrile, to a final volume of 50 μl, and analyzed by HPLC.
Samples were applied to a LC column (3 μm C18 300 Å, 250×4.6 mm) and subjected to a linear gradient of 0-40% with 20% 0.1 M TEAB, pH 7.5; 80% acetonitrile over 40 min at a flow rate of 1 ml/min.
Injection series included two extra control samples containing 5 nmol of dNaMTP or d5SICSTP. […] After peak integration, the ratio of the unknown peak to the control peak adjusted for the loss from the extraction step (62% and 70% loss for dNaM and d5SICS, respectively), provided a measure of the amount of each of the moieties in a sample. To determine the relative concentrations of unnatural nucleotide inside a cell, the amount of imported unnatural nucleotide was then divided by the volume of cells, which was calculated from the volume of a single E. coli cell of (1 μm^3) multiplied by the number of cells in each culture (OD600 of 1.0 equal to 1×10^9 cells per ml). An RpNTT2 sample was used as a negative control and its signal was subtracted to account for any incomplete washing of nucleotide species from the media.

PtNTT2 [1] = experiment: Uptake of d5SICSTP or dNaMTP into E. coli C41(DE3) expressing PtNTT2, media and cytoplasmic fractions by HPLC; type: cell-based, Escherichia coli C41(DE3) expressing PtNTT2
Protocol: (§1) E. coli C41(DE3) freshly transformed with pCDF-1b-PtNTT2 was grown in 2×YT with streptomycin overnight, then diluted (1:100) into fresh 2×YT medium (1 ml of culture per uptake with [α-^32P]-dATP; 2 ml of culture per uptake with d5SICSTP or dNaMTP) supplemented with 50 mM potassium phosphate (KPi) and streptomycin. […] Cells were grown to an OD600 of ˜0.6 and expression was induced by the addition of IPTG (1 mM). The culture was allowed to grow for another hour (final OD600 ˜1.2) and then assayed directly for uptake as described below using a method adapted from Haferkamp, et al.
To analyze the intracellular dephosphorylation of unnatural nucleoside triphosphates, cell pellets were subjected to 3×100 μl washes of ice cold KPi (50 mM). Pellets were then resuspended in 250 μl of ice cold KPi (50 mM) and lysed with 250 μl of Lysis buffer L7 of the PureLink Quick Plasmid DNA Miniprep Kit (200 mM NaOH, 1% w/v SDS), after which the resulting solution was incubated at RT for 5 min. Precipitation buffer N4 (350 μl, 3.1 M potassium acetate, pH 5.5) was added, and the sample was mixed to homogeneity.

E. coli C41(DE3) = experiment: pINF replication in E. coli C41(DE3)-pACS: growth (OD600) and relative plasmid copy number; conditions: 0.25 mM triphosphates; absence of pINF
Protocol: A single clone of freshly transformed E. coli C41(DE3)-pACS was grown overnight in 2×YT medium (3 ml) supplemented with streptomycin (50 μg/ml) and KPi (50 mM). After 100-fold dilution into the same medium (300 ml) and outgrowth at 37° C. to an OD600 of 0.20, IPTG was added to a final concentration of 1 mM to induce the expression of PtNTT2. After 40 min, the cultures were rapidly cooled to 0° C., washed with sterile water (3×150 ml), and resuspended in 10% glycerol (1.5 ml).
An aliquot of electrocompetent C41(DE3)-pACS cells (50 μL) was mixed with pINF (2 μL, 400 ng), and electroporated in a 0.2 cm gap cuvette. […]
The cells were resuspended in fresh 2×YT medium (1.5 ml, 50 μg/ml streptomycin, 100 μg/ml ampicillin, 1 mM IPTG, 50 mM KPi, 0.25 mM dNaMTP, 0.25 mM d5SICSTP) and grown at 37° C. with shaking (250 rpm). At defined time points, OD600 was determined and aliquots (100 μl) were removed and centrifuged (8000 rfu for 5 min, 4° C.). Spent media was analyzed for nucleotide composition by HPLC and pINF was recovered by spin column purification (Zymo Research Corp.). […]
After recovery, the cells were centrifuged (4000 rfu for 5 min, 4° C.), spent media (0.15 ml) was removed and analyzed for nucleotide composition by HPLC. […]

TpNTT2 = experiment: [α-32P]-dATP uptake into E. coli C41(DE3) expressing NTT, TLC/phosphorimaging; type: cell-based, Thalassiosira pseudonana
Protocol: as §1
(§2) To analyze the intracellular dephosphorylation of dATP, after induction of an NTT, an uptake reaction was initiated by the addition of dATP (spiked with [α-^32P]-dATP) to a final concentration of 0.25 mM, followed by incubation at 37° C. with shaking for 30 min. A culture was then centrifuged (8,000 rfu for 5 min, RT). Supernatant was analyzed by thin layer chromatography (TLC), while cell pellets were washed 3 times with ice cold KPi (50 mM, 100 μL) to remove excess radioactive substrate, lysed with NaOH (0.2 M, 100 μl) and centrifuged (10,000 rfu for 5 min RT) to pellet the cell debris, before the supernatant (1.5 μl) was analyzed by TLC. […]

PtNTT2 [2] = experiment: as above; type: cell-based, Phaeodactylum tricornutum; conditions: for dATP transport into cells by NTT: PtNTT2
Protocol: as §1
To analyze the intracellular dephosphorylation of dATP, after induction of an NTT, an uptake reaction was initiated by the addition of dATP (spiked with [α-^32P]-dATP) to a final concentration of 0.25 mM, followed by incubation at 37° C. with shaking for 30 min. A culture was then centrifuged (8,000 rfu for 5 min, RT). Supernatant was analyzed by thin layer chromatography (TLC), while cell pellets were washed 3 times with ice cold KPi (50 mM, 100 μL) to remove excess radioactive substrate, lysed with NaOH (0.2 M, 100 μl) and centrifuged (10,000 rfu for 5 min RT) to pellet the cell debris, before the supernatant (1.5 μl) was analyzed by TLC.
Samples (1 μl) were applied on a 0.5 mm polyethyleneimine cellulose TLC plate and eluted first by sodium formate (0.5 M, pH 3.0) for 30 sec, then by sodium formate (2.5 M, pH 3.0) for 2.5 m, and finally by sodium formate (4.0 M, pH 3.0) for 40 m. Plates were dried using a heat gun and quantified by phosphorimaging and imaging software.
The experiments described herein illustrate the plasmid-based expression of eight different NTTs in E. coli C41(DE3) (Table 9A). The uptake of [α-^32P]-dATP was examined as a surrogate for the unnatural triphosphates (FIG. 5).

PamNTT2 = experiment: as above; type: cell-based, Protochlamydia amoebophila
Protocol: as §1, §2

PamNTT5 = experiment: as above; type: cell-based, Protochlamydia amoebophila
Protocol: as §1, §2

[3] = Nucleotide extraction from cells for HPLC analysis: recovery and triphosphate decomposition; design: species or system E. coli; conditions: ratio of 3P composition before and after extraction
Protocol: To minimize the effect of the lysis and triphosphate extraction protocols on the decomposition of nucleoside triphosphate within the cell, the following extraction procedure was discovered that led to an unexpectedly highest recovery with and low extent of decomposition (Table 9). Cells were grown, washed, and then 5 nmol of either dNaMTP or d5SICSTP was added to the pellets, which were then subjected to various types of extractions including boiling water, hot ethanol, cold methanol, freeze and thaw, lysozyme, glass beads, NaOH, trichloroacetic acid (TCA) with Freon, and perchloric acid (PCA) with KOH. The recovery and composition of the control was quantified by HPLC. […] Pellets were resuspended in ice cold KPi (50 mM, 250 μl) before addition of NaOH to decrease dephosphorylation after cell lysis (Method 4).

With Cc1ccc2c(=S)n([C@H]3C[C@H](O)[C@@H](CO)O3)ccc2c1 [(d)5SICS] the “addition to DNA primer by polymerase (gel band shift)” value (Polymerase) was “extension by one base”.
For COc1cc2ccccc2cc1[C@H]1C[C@H](O)[C@@H](CO)O1 [(d)NaM], the “addition to DNA primer by polymerase (gel band shift)” value (Polymerase) was “extension by one base”.
For O=P(O)(O)O [KPi, potassium phosphate, reference compound], the “inhibition of dephosphorylation of unnatural triphosphates” value (actively growing E. coli; growing bacterial culture) was “significantly inhibited”.
In the case of Cc1ccc2c(=S)n([C@H]3C[C@H](O)[C@@H](COP(=O)(O)OP(=O)(O)OP(=O)(O)O)O3)ccc2c1 [d5SICSTP], the “import into E. coli by PtNTT2” value (PtNTT2 [1]) is reported as “efficiently imported”, the “effect of added triphosphates on E. coli growth / toxicity” value (E. coli C41(DE3)) is reported as “only a slight decrease in growth” and the “degradation of triphosphate in the presence of actively growing E. coli” value (actively growing E. coli) is reported as “degraded”.
With Nc1ncnc2c1ncn2[C@H]1C[C@H](O)[C@@H](COP(=O)(O)OP(=O)(O)OP(=O)(O)O)O1 [dATP] the “dATP transport into cells by NTT” value (TpNTT2) was “efficiently transported”, the “[α-32P]-dATP uptake as a function of transporter induction” value (PtNTT2 [2]; 1 mM IPTG induction, media containing 50 mM KPi) was “maximal” and the “dATP transport into cells by NTT” value (PtNTT2 [2]) was “efficiently transported”. For the same molecule, the “dATP transport into cells by NTT” value (PtNTT2 [2]; listed as [α-^32P]-dATP) was “significantly more active”, the “dATP uptake by NTT” value (PamNTT2) was “measurable uptake” and the “dATP uptake by NTT” value (PamNTT5) was “measurable uptake”. For the same molecule, the “extracellular stability in the presence of potassium phosphate (KPi)” value (actively growing E. coli; KPi in growth medium) was “significantly increased”.
In the case of COc1cc2ccccc2cc1[C@H]1C[C@H](O)[C@@H](COP(=O)(O)OP(=O)(O)OP(=O)(O)O)O1 [dNaMTP], the “import into E. coli by PtNTT2” value (PtNTT2 [1]) is reported as “efficiently imported”, the “effect of added triphosphates on E. coli growth / toxicity” value (E. coli C41(DE3)) is reported as “only a slight decrease in growth” and the “degradation of triphosphate in the presence of actively growing E. coli” value (actively growing E. coli) is reported as “degraded”.
With COc1cc2ccccc2cc1[C@H]1C[C@H](O)[C@@H](CO)O1 [dNaM] the “Triphosphate stability, %” value ([3]; Method 1 TCA with Freon) was 92%, the “Triphosphate stability, %” value ([3]; Method 2 PCA w/KOH) was 98% and the “Triphosphate stability, %” value ([3]; Method 3 NaOH w/KOAc) was 86%. The “Triphosphate stability, %” value ([3]; Method 4 NaOH w/KOAc supplemented w/ KPi (50 mM)) was 99%.
